Measured values as given in patent publication US7112683B2, “Cyclic sulfone containing retroviral protease inhibitors” (priority 1992, dated 2006).
pEC50, pIC50: −log10 of the molar value. Like-named read-outs stand apart in the source and are kept apart here.

What was measured:
HIV protease = HIV protease (Human immunodeficiency virus type 1 group M subtype B, UniProt P04585); assay: HIV protease enzyme assay (fluorogenic substrate 2-aminobenzoyl-Ile-Nle-Phe(p-NO2)-Gln-ArgNH2); assay type: biochemical
Procedure: The compounds of the present invention are effective HIV protease inhibitors. […] The calculated IC50 indicates the concentration providing inhibition of 50%, i.e., the concentration at which the inhibitor compound reduces enzyme activity by 50%). The enzyme method is described below. The substrate is 2-aminobenzoyl-Ile-Nle-Phe(p-NO2)-Gln-ArgNH2. The positive control is MVT-101 [Miller, M. et al, Science, 246, 1149 (1989)]. The assay conditions are as follows: • Assay buffer: 20 mM sodium phosphate, pH 6.4 • 20% glycerol • 1 mM EDTA • 1 mM DTT • 0.1% CHAPS
The above described substrate is dissolved in DMSO, then diluted 10 fold in assay buffer. Final substrate concentration in the assay is […].
HIV protease is diluted in the assay buffer to a final concentration of glycerol is 18%. The test compound is dissolved in DMSO and diluted in DMSO to 10× the test concentration; […] of the enzyme preparation is added, the materials mixed and then the mixture is incubated at ambient temperature for 15 minutes. The enzyme reaction is initiated by the addition of […] of substrate. The increase in fluorescence is monitored at 4 time points (0, 8, 16 and 24 minutes) at ambient temperature. Each assay is carried out in duplicate wells.

HIV = assay: EC50 of Table 1 (antiviral activity, method not described); assay type: cell-based
[1] = TD50 of Table 1 (toxic dose, method not described)
[2] = HIV protease, pH 6.4, ambient temperature, read-out: IC50
[3] = IC50 (range given for the listed examples), inhibition of the HIV enzyme, range over Examples 4, 4a, 7, 8 and 9
[4] = IC50, HIV protease, pH 6.4, ambient temperature

Compound	pIC50 (HIV protease; [2])	pEC50 (HIV)	TD50 [1]	pIC50 (HIV protease; [3])	pIC50 (HIV protease; [4])	pIC50 (HIV protease; inhibition of the HIV enzyme, range over Examples 4, 4a, 7, 8 and 9, read-out: IC50 (range given for the listed examples))
2H-thiopyran-3-carboxamide, N-(3-[[[(1,1-dimethylethyl amino]-carbonyl](3-methylbutyl) amino]-2-hydroxy-1-(phenylmethyl) propyl]tetrahydro,-1,1-dioxide. [Example 4]	7.89	7.20	308,000 nM			
CC(C)CCN(C[C@@H](O)[C@H](Cc1ccccc1)NC(=O)C1CCCS(=O)(=O)C1)C(=O)NC(C)(C)Cn1ccnc1 (some centres unmarked) [Example 4a]				6.85 to 8.52	7.34	
CC(C)(C)NC(=O)[C@@H]1C[C@@H]2CCCC[C@@H]2CN1C[C@@H](O)[C@H](Cc1ccccc1)NC(=O)C1CCCS(=O)(=O)C1 (some centres unmarked) [Example 7]				6.85 to 8.52	8.52	
CC(C)CCN(C[C@@H](O)[C@H](Cc1ccccc1)NC(=O)C1CCCS(=O)(=O)C1)S(=O)(=O)c1ccccc1 (some centres unmarked) [Example 8]				6.85 to 8.52	8.40	
CC(C)CN(CC(O)C(Cc1ccccc1)NC(=O)C1CCCS(=O)(=O)C1)S(=O)(=O)NC(C)(C)C (centres unmarked) [Example 9]	6.85					6.85 to 8.52
